The values that follow come from patent US20250354979A1, “DRUG EVALUATION METHOD, REAGENT, AND KIT” (FUJIFILM Corporation, priority 2023, published 2025).

In experiment [1] the test system is human iPS cell-derived myocardial cells. Kind of experiment: Heart rate of myocardial cells by MEA, serum-free culture medium with isoproterenol added. It is filed as cell-based. To be noted: serum-free culture medium with 1 μmol/L isoproterenol; cumulative drug concentrations, 20 minutes after addition; vs medium control. As to the method:
Example 1: Method and results of evaluating decrease in heart rate by muscarinic receptor agonist (carbachol) using serum-free culture medium to which adrenergic receptor agonist (isoproterenol) is added Human iPS cell-derived myocardial cells (iCell myocardial cells 2.0, manufactured by FUJIFILM Cellular Dynamics, Inc.) in a frozen state were thawed, suspended in a thawing culture medium (iCell myocardial cell thawing culture medium, manufactured by FUJIFILM Cellular Dynamics, Inc.), and then seeded at a cell density of 50,000 cells per well on a MEA plate (Cyto View MEA 48, manufactured by Axion BioSystems, Inc.). The seeding density of myocardial cells in the vicinity of the electrode was 2,671 cells/mm^2. After the plate was allowed to stand in a CO2 incubator for several hours, a maintenance culture medium (iCell myocardial cell maintenance culture medium, manufactured by FUJIFILM Cellular Dynamics, Inc.) containing serum was added, and the myocardial cells were cultured in the CO2 incubator for about one week. […]
On the day of measurement, the MEA plate on which human iPS cell-derived myocardial cells were cultured was placed in an MEA system (Maestro Pro, manufactured by Axion BioSystems, Inc.), 1 μmol/L of isoproterenol (manufactured by Tokyo Chemical Industry Co., Ltd.) was added to the culture medium, and then the extracellular potential was measured after 20 minutes from the addition (medium control, carbachol concentration: 0 μmol/L). Subsequently, 0.01 μmol/L of carbachol (manufactured by Tokyo Chemical Industry Co., Ltd.) was added to the MEA plate, and then the extracellular potential was measured after 20 minutes from the addition. Similarly, carbachol was added to give concentrations of 0.1 μmol/L, 1 μmol/L, and 10 μmol/L, and then the extracellular potential was measured at each concentration.
From the measurement results of the extracellular potential, the interval between sharp peaks indicating depolarization of human iPS cell-derived myocardial cells was taken as the beating time (sec), and the heart rate (/min)=60/ beating time (sec) was calculated. […]

For experiment [2] the test system is unchanged. Kind of experiment: Heart rate of myocardial cells by MEA, serum-free culture medium with isoproterenol and carbachol added. In kind it is cell-based. To be noted: serum-free culture medium with 1 μmol/L isoproterenol and 3 μmol/L carbachol; cumulative drug concentrations, 20 minutes after addition; vs medium control. How it is done: Example 4: Method and results of evaluating increase in heart rate by muscarinic receptor inhibitor (atropine) using serum-free culture medium to which adrenergic receptor agonist (isoproterenol) and muscarinic receptor agonist (carbachol) are added Human iPS cell-derived myocardial cells (iCell myocardial cells 2.0, manufactured by FUJIFILM Cellular Dynamics, Inc.) in a frozen state were thawed, suspended in a thawing culture medium (iCell myocardial cell thawing culture medium, manufactured by FUJIFILM Cellular Dynamics, Inc.), and then seeded at a cell density of 50,000 cells per well on a MEA plate (Cyto View MEA 48, manufactured by Axion BioSystems, Inc.). The seeding density of myocardial cells in the vicinity of the electrode was 2,725 cells/mm^2. After the plate was allowed to stand in a CO2 incubator for several hours, a maintenance culture medium (iCell myocardial cell maintenance culture medium, manufactured by FUJIFILM Cellular Dynamics, Inc.) containing serum was added, and the myocardial cells were cultured in the CO2 incubator for about one week. The culture medium was exchanged with a serum-free culture medium (a myocardial cell serum-free assay culture medium, manufactured by FUJIFILM Cellular Dynamics, Inc.) on the day before the measurement.
On the day of measurement, the MEA plate on which human iPS cell-derived myocardial cells were cultured was placed in an MEA system (Maestro Pro, manufactured by Axion BioSystems, Inc.), 1 μmol/L of isoproterenol (manufactured by Tokyo Chemical Industry Co., Ltd.) and 3 μmol/L of carbachol (manufactured by Tokyo Chemical Industry Co., Ltd.) were added to the culture medium, and then the extracellular potential was measured after 20 minutes from the addition (medium control, atropine concentration: 0 μmol/L). Subsequently, 0.01 μmol/L of atropine (manufactured by Tokyo Chemical Industry Co., Ltd.) was added to the MEA plate, and then the extracellular potential was measured after 20 minutes from the addition. Similarly, atropine was added to give concentrations of 0.1 μmol/L and 1 μmol/L, and then the extracellular potential was measured at each concentration.
From the measurement results of the extracellular potential, the interval between sharp peaks indicating depolarization of human iPS cell-derived myocardial cells was taken as the beating time (sec), and the heart rate (/min)=60/beating time (sec) was calculated. The addition of atropine was confirmed to result in an increase in heart rate of up to 51% (FIG. 7).
In the same manner as in Example 4, evaluation was carried out using an MEA plate on which human iPS cell-derived myocardial cells were cultured. Specifically, the same operations as in Example 4 were carried out except that atropine added in Example 4 was changed to tiotropium (manufactured by Tokyo Chemical Industry Co., Ltd.) and the concentration of tiotropium added was 1 pmol/L, 10 pmol/L, 100 pmol/L, and 1,000 pmol/L.
In the same manner as in Example 4, evaluation was carried out using an MEA plate on which human iPS cell-derived myocardial cells were cultured. Specifically, the same operations as in Example 4 were carried out except that atropine added in Example 4 was changed to glycopyrronium (manufactured by Tokyo Chemical Industry Co., Ltd.) and the concentration of glycopyrronium added was 0.01 nmol/L, 0.1 nmol/L, 1 nmol/L, and 10 nmol/L.
In the same manner as in Example 4, evaluation was carried out using an MEA plate on which human iPS cell-derived myocardial cells were cultured. Specifically, the same operations as in Example 4 were carried out except that the atropine added in Example 4 was changed to propranolol (manufactured by FUJIFILM Wako Pure Chemical Corporation) and the concentration of propranolol added was 0.1 nmol/L, 1 nmol/L, 10 nmol/L, and 100 nmol/L.
In the same manner as in Example 4, evaluation was carried out using an MEA plate on which human iPS cell-derived myocardial cells were cultured. […]

On to `C[N+](C)(C)CCOC(N)=O` [carbachol], for which the “decrease in heart rate” value in experiment [1] is reported as “up to 34%”.

`CN1[C@@H]2CC[C@H]1C[C@@H](OC(=O)C(CO)c1ccccc1)C2` (some centres unmarked) [atropine]: in experiment [2], the “increase in heart rate” value is recorded as “up to 51%”.
